This is an account of results in ChEMBL document CHEMBL1201862, “PubChem BioAssay data set” (2004).

Each structure is given as a SMILES string. Calls of active or inactive are those of the source. Bounds are passed on as bounds.

Assay [1] has as its target T1, Aryl hydrocarbon receptor (Homo sapiens, UniProt P35869).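 Also: confirmatory quantitative high-throughput screen measuring activation of the AhR signaling pathway.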
T1 sequence (P35869 whole entry): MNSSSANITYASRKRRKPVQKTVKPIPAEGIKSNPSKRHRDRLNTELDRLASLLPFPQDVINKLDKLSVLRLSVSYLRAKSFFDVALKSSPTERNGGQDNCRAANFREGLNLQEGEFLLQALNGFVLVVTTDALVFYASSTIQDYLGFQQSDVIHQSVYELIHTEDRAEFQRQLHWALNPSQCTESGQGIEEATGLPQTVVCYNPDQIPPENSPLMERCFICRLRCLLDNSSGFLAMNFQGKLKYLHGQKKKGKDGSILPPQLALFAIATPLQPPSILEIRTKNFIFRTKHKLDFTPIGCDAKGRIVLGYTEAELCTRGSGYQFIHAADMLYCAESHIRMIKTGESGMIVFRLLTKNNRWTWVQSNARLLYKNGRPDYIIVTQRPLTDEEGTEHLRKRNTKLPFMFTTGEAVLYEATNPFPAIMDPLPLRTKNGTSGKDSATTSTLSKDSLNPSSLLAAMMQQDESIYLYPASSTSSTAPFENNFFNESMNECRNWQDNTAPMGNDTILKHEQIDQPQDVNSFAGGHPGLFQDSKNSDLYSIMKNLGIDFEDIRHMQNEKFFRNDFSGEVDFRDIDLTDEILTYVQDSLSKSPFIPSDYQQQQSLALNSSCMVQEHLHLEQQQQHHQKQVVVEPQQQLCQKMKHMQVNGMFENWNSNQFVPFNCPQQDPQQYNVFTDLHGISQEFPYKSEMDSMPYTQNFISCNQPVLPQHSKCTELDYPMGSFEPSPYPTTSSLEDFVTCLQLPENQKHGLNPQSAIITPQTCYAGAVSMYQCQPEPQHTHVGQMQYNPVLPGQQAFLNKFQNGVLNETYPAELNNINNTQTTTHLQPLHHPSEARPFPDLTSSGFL
Particulars: Potency.

The target in assay [2] is Cytochrome P450 3A4 (Homo sapiens, UniProt P08684). Particulars: Potency.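 Also: confirmatory qHTS run detecting inhibitors and substrates of CYP3A4.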
Chain of Cytochrome P450 3A4 (P08684 whole entry): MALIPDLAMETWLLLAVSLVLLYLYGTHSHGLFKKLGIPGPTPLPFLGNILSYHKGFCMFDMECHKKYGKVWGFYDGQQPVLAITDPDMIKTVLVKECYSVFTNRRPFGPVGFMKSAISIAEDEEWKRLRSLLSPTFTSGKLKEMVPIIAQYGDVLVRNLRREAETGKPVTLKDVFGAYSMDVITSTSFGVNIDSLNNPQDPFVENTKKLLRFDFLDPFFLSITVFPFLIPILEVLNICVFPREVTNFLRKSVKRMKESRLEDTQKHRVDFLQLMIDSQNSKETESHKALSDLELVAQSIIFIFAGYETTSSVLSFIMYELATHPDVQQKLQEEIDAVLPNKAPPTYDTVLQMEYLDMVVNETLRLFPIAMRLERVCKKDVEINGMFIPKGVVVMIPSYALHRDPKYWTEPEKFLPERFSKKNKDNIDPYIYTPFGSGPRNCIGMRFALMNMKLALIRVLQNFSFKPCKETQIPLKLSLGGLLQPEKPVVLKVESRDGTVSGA
Assay [3] deals with Adenosylmethionine-8-amino-7-oxononanoate aminotransferase (Mycobacterium tuberculosis, UniProt P9WQ81). The experiment in a line: Mycobacterium tuberculosis BioA enzyme inhibitor Measured in Biochemical System Using Plate Reader - 2163-02_Inhibitor_Dose_CherryPick_Activity. Format: functional, Mycobacterium tuberculosis UT205.
Chain of Adenosylmethionine-8-amino-7-oxononanoate aminotransferase (P9WQ81 whole entry): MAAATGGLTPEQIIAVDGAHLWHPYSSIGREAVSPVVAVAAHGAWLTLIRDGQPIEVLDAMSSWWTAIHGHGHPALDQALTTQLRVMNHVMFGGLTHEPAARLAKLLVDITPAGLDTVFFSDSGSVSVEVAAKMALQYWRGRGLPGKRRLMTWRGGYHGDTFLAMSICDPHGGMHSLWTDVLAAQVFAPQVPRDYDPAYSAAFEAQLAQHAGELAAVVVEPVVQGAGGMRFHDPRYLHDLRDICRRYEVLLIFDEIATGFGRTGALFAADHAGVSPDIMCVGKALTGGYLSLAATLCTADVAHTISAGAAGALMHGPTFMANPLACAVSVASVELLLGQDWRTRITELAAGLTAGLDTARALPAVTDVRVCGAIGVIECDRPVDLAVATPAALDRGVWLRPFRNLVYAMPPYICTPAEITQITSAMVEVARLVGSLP
A short description of assay [4]: DRD fibroblast viability loss – cell-based, non-viral oncogenic, luminescence, dose response (AID 1934). Format: functional. The conditions noted are these: Homo sapiens.
The test system of assay [5] is BJ. Put plainly: cells. Format: functional, cell-based. Particulars: Homo sapiens.
The subject of assay [6] is BJ. The experiment in a line: BJ-TERT-LT-ST fibroblast viability loss – cell-based, RAS-independent, luminescence, dose response (AID 1935).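 Also: BJ fibroblasts immortalized with TERT plus LT and ST oncogenes.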 In kind it is functional. Particulars: Homo sapiens.
Assay [7] concerns BJ. The experiment in a line: BJ-TERT fibroblast viability loss – cell-based, RAS-independent, luminescence, dose response (AID 1933). Format: functional. Particulars: Homo sapiens.
In assay [8] the target is T2, Mitochondrial peptide methionine sulfoxide reductase (Bos taurus, UniProt P54149).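 Also: absorbance read-out, biochemical high-throughput dose-response screen for MsrA inhibitors, confirmatory; recombinant bovine MsrA coupled to E. coli TrxB with NADPH and selenocystamine; potency is for inhibitors of MsrA activity on DMSO substrate.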
T2 sequence (P54149 whole entry): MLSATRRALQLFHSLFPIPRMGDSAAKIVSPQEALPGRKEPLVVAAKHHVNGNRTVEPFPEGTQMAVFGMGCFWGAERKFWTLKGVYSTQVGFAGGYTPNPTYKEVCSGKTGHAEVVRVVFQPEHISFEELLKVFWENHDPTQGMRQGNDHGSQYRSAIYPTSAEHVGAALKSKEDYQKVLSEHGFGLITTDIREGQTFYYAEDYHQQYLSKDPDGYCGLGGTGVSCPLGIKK
Format: functional.

The subject of assay [9] is Vero. The experiment in a line: cells. Format: functional. Particulars: Chlorocebus sabaeus.
For assay [10], the target named is T3, Sentrin-specific protease 1 (Homo sapiens, UniProt Q9P0U3).
T3 sequence (Q9P0U3 whole entry): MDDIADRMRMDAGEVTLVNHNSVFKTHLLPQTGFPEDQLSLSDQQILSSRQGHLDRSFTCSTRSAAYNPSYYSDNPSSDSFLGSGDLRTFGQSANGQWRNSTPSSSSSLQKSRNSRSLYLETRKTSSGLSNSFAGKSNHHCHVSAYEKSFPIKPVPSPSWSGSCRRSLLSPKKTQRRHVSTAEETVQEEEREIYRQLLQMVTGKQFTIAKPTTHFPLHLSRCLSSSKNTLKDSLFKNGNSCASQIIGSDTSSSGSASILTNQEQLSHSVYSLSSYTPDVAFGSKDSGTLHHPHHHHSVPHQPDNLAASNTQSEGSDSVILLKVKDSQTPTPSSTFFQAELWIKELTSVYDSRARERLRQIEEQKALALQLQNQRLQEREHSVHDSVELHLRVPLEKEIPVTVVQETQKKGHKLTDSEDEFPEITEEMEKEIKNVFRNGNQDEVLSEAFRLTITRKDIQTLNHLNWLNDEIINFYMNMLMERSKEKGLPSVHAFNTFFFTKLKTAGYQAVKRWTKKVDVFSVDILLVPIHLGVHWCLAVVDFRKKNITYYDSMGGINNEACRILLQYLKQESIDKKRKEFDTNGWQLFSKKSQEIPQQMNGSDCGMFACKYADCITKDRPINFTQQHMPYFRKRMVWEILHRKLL
The experiment in a line: Dose response confirmation of small molecule inhibitors of the catalytic domain of the SUMO protease, SENP1 in a FRET assay. Format: functional. The conditions noted are these: read-out: IC50_Mean.

Assay [11] concerns the target T3, Sentrin-specific protease 1. The experiment in a line: SENP1 catalytic domain blockers, concentration series – biochemical, kinetic FRET, dose response (AID 651697). Format: functional. Particulars: read-out: IC50_Mean.
Assay [12] in a line: activation of miR-122 Renilla sensor silencing – cell-based, Huh7 psiCHECK-miR122, Renilla luciferase, cherry-picked, dose response (AID 651956).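 Also: huh7 hepatoma cells stably carrying a psiCHECK-2 miR-122 sensor plasmid; renilla luciferase signal reporting endogenous miR-122 activity after 48 h compound exposure.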 In kind it is functional.
Assay [13] has as its target T4, Lymphokine-activated killer T-cell-originated protein kinase (Homo sapiens, UniProt Q96KB5).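 Also: value comes from a kinase panel screen in which TOPK was one of the panel members.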
T4 sequence (Q96KB5 whole entry): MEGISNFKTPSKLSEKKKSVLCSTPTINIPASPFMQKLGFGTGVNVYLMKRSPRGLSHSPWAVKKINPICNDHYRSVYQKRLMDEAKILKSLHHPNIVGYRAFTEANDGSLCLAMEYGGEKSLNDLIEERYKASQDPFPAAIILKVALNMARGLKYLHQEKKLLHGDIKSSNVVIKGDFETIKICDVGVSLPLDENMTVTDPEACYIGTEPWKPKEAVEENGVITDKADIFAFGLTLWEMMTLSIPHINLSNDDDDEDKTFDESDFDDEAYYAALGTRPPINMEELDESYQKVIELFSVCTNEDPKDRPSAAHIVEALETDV
In kind it is functional.

The target of assay [14] is PAS domain-containing serine/threonine-protein kinase (Homo sapiens, UniProt Q96RG2). In kind it is functional.
Chain of PAS domain-containing serine/threonine-protein kinase (Q96RG2 whole entry, the tested form may be a part): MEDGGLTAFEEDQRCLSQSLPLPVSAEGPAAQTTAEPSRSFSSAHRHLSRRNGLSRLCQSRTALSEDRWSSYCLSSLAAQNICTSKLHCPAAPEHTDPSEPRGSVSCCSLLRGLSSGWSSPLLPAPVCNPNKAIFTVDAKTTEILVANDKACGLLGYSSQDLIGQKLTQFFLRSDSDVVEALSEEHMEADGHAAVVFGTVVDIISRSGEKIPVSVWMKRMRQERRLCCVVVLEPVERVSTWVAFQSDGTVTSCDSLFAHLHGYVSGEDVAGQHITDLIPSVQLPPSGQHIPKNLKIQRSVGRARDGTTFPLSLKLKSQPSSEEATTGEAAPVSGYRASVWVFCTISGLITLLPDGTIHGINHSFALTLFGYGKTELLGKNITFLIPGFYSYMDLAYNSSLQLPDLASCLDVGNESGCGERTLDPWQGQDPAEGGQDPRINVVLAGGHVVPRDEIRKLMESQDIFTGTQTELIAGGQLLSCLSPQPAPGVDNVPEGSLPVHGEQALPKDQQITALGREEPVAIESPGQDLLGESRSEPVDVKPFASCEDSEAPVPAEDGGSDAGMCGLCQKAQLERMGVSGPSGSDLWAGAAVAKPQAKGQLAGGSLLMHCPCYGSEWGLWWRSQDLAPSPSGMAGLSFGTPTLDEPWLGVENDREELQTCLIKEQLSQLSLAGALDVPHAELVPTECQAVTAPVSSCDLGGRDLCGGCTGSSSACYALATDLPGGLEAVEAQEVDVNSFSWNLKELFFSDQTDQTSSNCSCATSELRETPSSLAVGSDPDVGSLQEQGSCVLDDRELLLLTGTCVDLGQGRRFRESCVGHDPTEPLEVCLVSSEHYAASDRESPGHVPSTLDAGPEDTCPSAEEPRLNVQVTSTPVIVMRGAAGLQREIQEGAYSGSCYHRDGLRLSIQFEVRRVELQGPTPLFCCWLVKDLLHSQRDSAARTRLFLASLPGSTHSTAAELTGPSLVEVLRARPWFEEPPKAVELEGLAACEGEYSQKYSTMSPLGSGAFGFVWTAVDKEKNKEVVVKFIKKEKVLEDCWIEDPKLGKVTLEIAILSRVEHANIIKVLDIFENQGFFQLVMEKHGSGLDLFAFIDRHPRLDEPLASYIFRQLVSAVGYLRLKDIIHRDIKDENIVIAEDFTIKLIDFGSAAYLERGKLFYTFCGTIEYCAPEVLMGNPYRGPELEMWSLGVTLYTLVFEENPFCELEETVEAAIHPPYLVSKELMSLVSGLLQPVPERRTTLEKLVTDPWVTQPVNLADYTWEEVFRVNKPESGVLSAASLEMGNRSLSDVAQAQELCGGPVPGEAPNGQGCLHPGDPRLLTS
Assay [15] has as its target Protein kinase C gamma type (Homo sapiens, UniProt P05129). In kind it is functional.
Assay [16] deals with T5, Dual specificity tyrosine-phosphorylation-regulated kinase 3 (Homo sapiens, UniProt O43781).
T5 sequence (O43781 whole entry): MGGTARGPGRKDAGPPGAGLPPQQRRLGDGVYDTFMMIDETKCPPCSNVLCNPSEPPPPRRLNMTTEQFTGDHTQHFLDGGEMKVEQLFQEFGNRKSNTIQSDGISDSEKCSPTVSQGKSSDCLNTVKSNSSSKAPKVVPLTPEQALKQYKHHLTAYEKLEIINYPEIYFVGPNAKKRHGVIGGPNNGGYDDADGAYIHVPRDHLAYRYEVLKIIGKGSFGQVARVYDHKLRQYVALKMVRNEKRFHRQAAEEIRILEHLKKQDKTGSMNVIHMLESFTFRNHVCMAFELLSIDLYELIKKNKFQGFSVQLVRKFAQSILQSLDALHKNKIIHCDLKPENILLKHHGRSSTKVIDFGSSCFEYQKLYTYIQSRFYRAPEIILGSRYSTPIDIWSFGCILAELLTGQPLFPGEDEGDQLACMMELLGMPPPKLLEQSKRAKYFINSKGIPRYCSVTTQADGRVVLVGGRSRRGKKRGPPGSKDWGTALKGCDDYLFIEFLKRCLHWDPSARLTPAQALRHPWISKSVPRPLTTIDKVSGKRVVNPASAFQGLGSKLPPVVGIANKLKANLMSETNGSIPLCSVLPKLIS
In kind it is functional.

Assay [17] has as its target Cyclin-dependent kinase 1 (Homo sapiens, UniProt P06493). In kind it is functional.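 Also: Kinome-wide panel profiling, with the target listed as panel member CDC2.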
The target in assay [18] is T6, Protein kinase C zeta type (Homo sapiens, UniProt Q05513).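 Also: measured as one member of a broad kinase profiling panel.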
T6 sequence (Q05513 whole entry): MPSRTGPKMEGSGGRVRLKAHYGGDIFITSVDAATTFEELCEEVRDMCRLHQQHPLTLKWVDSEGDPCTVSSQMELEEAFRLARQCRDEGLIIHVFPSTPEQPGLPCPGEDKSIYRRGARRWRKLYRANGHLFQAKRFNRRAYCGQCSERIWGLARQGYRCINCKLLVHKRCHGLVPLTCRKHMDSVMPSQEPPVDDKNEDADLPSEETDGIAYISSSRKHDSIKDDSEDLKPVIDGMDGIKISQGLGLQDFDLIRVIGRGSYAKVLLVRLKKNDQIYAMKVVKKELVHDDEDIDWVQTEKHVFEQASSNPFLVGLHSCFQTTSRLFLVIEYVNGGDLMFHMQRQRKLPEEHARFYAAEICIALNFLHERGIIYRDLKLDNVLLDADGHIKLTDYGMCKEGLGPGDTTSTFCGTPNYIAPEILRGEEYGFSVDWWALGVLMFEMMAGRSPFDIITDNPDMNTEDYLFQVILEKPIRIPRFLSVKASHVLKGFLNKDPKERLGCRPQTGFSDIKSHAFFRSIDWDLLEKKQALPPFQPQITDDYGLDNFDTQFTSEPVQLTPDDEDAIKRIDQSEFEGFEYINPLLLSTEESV
Format: functional.

For assay [19], the target named is MAP kinase-activated protein kinase 3 (Homo sapiens, UniProt Q16644). In kind it is functional.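 Also: value comes from a kinome-wide profiling panel in which MAPKAPK3 is one of the panel members.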
Chain of MAP kinase-activated protein kinase 3 (Q16644 whole entry): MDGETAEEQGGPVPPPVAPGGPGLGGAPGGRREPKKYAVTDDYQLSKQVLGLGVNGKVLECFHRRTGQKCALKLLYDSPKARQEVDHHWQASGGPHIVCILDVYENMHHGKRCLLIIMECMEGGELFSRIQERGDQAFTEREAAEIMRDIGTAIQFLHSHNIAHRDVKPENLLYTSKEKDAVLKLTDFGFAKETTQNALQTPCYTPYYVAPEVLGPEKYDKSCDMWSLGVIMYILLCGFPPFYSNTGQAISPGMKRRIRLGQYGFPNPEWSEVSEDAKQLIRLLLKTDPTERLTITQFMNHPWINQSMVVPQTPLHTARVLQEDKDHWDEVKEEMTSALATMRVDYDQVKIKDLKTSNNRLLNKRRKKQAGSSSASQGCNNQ
In assay [20] the target is T7, Testis-specific serine/threonine-protein kinase 2 (Homo sapiens, UniProt Q96PF2).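 Also: part of the Navigating the Kinome panel, target entry STK22B.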
T7 sequence (Q96PF2 whole entry): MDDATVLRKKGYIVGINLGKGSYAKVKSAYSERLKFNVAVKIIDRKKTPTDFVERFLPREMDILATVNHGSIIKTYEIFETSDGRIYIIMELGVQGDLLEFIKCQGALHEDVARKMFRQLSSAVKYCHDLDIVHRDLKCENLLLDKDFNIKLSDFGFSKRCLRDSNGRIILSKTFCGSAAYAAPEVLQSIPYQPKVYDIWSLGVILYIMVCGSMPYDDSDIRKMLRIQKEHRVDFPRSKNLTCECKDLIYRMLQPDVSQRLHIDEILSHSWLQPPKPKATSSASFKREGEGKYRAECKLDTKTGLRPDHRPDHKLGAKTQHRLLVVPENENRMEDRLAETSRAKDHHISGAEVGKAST
In kind it is functional.

Chain of Cyclin-dependent kinase 1 (P06493 whole entry): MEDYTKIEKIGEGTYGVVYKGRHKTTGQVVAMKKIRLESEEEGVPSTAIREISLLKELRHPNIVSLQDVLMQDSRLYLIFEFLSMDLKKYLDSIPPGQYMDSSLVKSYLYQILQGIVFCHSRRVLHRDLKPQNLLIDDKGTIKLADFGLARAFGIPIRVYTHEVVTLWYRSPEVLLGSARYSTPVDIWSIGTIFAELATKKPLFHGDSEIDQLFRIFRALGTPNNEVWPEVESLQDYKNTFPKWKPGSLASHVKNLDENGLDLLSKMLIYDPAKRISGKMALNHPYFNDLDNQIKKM

One may read the AC50 as the midpoint of the concentration-response curve, whichever way the signal moves. As for `COc1ccc(C(=O)Nc2ccccc2)cc1[N+](=O)[O-]`, the AC50 in assay [1] was 44.7 µM (inconclusive); in [2] it was 15.8 µM (inconclusive).
For orientation: EC50 means the concentration needed to bring the measured effect to its halfway point. Consider `CC(=O)c1ccc(N2CCN(c3ncccn3)CC2)c([N+](=O)[O-])c1`, for which the AC50 in [3] is 1.02 µM (active). In addition, the EC50 in assay [4] is > 150 µM (not active); in assay [5] it was > 150 µM (not active); in [6], > 150 µM (inconclusive); in assay [7], > 150 µM (not active).
As to `CSc1nc2[nH]c3c(c2c2nnnn12)CCCC3`, in [8], the IC50 was 155 µM (inactive).
Turning to `COc1cc2cnc(-c3cccnc3)cc2cc1OC`, the AC50 in assay [3] was 11.2 µM (active).
By CC50 is commonly meant the concentration giving 50% cytotoxicity. Turning to `O=c1c2ccccc2nc(/C=C/c2cc(Br)ccc2O)n1CCO`, the cytotoxic concentration (CC50) in assay [9] is 15.2 µM (active). The IC50 in [10] was 6.14 µM (active); in assay [11] it was 8.91 µM (active).
For `CC(C)(C)[C@@H](O)/C(=C\c1ccc(Cl)cc1Cl)n1cncn1`, in assay [1], the AC50 is 70.8 µM (inconclusive).
With `CNC(=O)C[C@@H]1CC[C@H]2[C@@H](COc3ccc(NC(=O)c4cccc(OC)c4)cc3C(=O)N2C)O1`, the AC50 in assay [12] is 54.9 µM (active).
As usually defined, the Ki is the equilibrium dissociation constant of an inhibitor or competing ligand from its target. In the case of `CN1CCN(c2ccc3nc(-c4c(N)c5c(F)cccc5[nH]c4=O)[nH]c3c2)CC1` [DOVITINIB], the Ki in [13] is > 10 µM (inactive); in assay [14], > 1.58 µM (inactive); in [15], > 7.94 µM (inactive); in assay [16] it was > 6.31 µM (inactive); in [17], > 7.94 µM (inactive); in assay [18], > 7.94 µM (inactive). Moreover, the Ki is > 10 µM (inactive) in assay [19] and > 1.58 µM (inactive) in assay [20].
